Results: article PMC11681614, “A crucial active site network of titratable residues guides catalysis and NAD ^+ binding in human succinic semialdehyde dehydrogenase” (Protein Science : A Publication of the Protein Society, 2024)
Substitutions are numbered along the chain they refer to. Each block holds one molecule with its values, some of them ahead of it.

Key:
[1] = target: T1, hSSADH (human succinic semialdehyde dehydrogenase) (Homo sapiens, UniProt P51649); experiment: initial rates, NADH fluorescence (ex […], em […] nm), global fit to Equation ([…]); type: biochemical; settings: partial non-competitive substrate inhibition, co-substrate NAD+, pH 8, potassium phosphate
T1 construct: gene ALDH5A1; purified recombinant homotetramer, expressed and purified as in Didiasova et al. 2024
T1 sequence (P51649 48-535): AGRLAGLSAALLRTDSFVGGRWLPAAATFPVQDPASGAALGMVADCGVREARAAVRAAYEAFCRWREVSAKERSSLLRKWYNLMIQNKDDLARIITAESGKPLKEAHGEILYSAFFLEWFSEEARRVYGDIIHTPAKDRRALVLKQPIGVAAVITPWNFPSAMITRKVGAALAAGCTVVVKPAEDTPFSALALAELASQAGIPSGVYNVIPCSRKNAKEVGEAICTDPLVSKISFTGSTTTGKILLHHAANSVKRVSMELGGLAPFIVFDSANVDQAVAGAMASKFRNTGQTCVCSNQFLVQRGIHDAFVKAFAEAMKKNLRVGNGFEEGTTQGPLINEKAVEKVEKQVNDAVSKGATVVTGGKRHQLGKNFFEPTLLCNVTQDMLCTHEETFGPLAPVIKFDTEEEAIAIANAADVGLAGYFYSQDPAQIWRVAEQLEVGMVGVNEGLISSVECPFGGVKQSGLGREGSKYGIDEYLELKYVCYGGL

[2] = target: T1, hSSADH (human succinic semialdehyde dehydrogenase); experiment: intrinsic fluorescence quenching (ex […] nm, em […] nm), hyperbolic fit; type: binding
[3] = target: T2, hSSADH (human succinic semialdehyde dehydrogenase) (Homo sapiens, UniProt P51649, K214A); experiment: as above; type: binding; settings: read-out: K DNAD+
T2 construct: gene ALDH5A1; purified recombinant homotetramer, expressed and purified as in Didiasova et al. 2024
T2 sequence (P51649 48-535 K214A): T1 sequence (P51649 48-535) with K167A

[4] = target: T3, hSSADH (human succinic semialdehyde dehydrogenase) (Homo sapiens, UniProt P51649, E306Q); experiment: as above; type: binding; settings: read-out: K DNAD+
T3 construct: gene ALDH5A1; purified recombinant homotetramer, expressed and purified as in Didiasova et al. 2024
T3 sequence (P51649 48-535 E306Q): T1 sequence (P51649 48-535) with E259Q

[5] = target: T1, hSSADH (human succinic semialdehyde dehydrogenase); experiment: product inhibition, NADH […], replots of slopes and intercepts; type: biochemical
purified protein [6] = substrate: O=CCCC(=O)O; experiment: purified protein; type: biochemical, Homo sapiens; settings: co-substrate NAD+, pH 8, 100 mM potassium phosphate, 14°C, ordered bi-bi, partial substrate inhibition fit
purified protein [7] = substrate: NC(=O)c1ccc[n+]([C@@H]2O[C@H](COP(=O)([O-])OP(=O)(O)OC[C@H]3O[C@@H](n4cnc5c(N)ncnc54)[C@H](O)[C@@H]3O)[C@@H](O)[C@H]2O)c1; experiment: purified protein; type: biochemical, Homo sapiens; settings: co-substrate SSA, pH 8, 100 mM potassium phosphate, 14°C, ordered bi-bi, partial substrate inhibition fit, varied: cofactor
[8] = target: the molecule itself; experiment: not stated; purified recombinant hSSADH; the experiment on the oligomeric state is in Data S1 (not shown)

Molecule: NC(=O)c1ccc[n+]([C@@H]2O[C@H](COP(=O)([O-])OP(=O)(O)OC[C@H]3O[C@@H](n4cnc5c(N)ncnc54)[C@H](O)[C@@H]3O)[C@@H](O)[C@H]2O)c1 [NAD^+]
Kd [2]: 4.5 ± 0.8 µM
Kd [3]: 2.5 ± 0.2 µM
Kd [4]: 4.3 ± 0.4 µM

B1: hSSADH (human succinic semialdehyde dehydrogenase) (Homo sapiens) (protein)
chain: T1 sequence (P51649 48-535)
notes: purified recombinant homotetramer, expressed and purified as in Didiasova et al. 2024
Km (purified protein [6]): 1.2 ± 0.2 µM
kcat (purified protein [6]): 26 ± 2 s⁻¹
Km (purified protein [7]): 31 ± 5 µM
kcat (purified protein [7]): 26 ± 2 s⁻¹

B2: Human succinic semialdehyde dehydrogenase (enzyme)
chain: GRLAGLSAALLRTDSFVGGRWLPAAATFPVQDPASGAALGMVADCGVREARAAVRAAYEAFCRWREVSAKERSSLLRKWYNLMIQNKDDLARIITAESGKPLKEAHGEILYSAFFLEWFSEEARRVYGDIIHTPAKDRRALVLKQPIGVAAVITPWNFPSAMITRKVGAALAAGCTVVVKPAEDTPFSALALAELASQAGIPSGVYNVIPCSRKNAKEVGEAICTDPLVSKISFTGSTTTGKILLHHAANSVKRVSMELGGLAPFIVFDSANVDQAVAGAMASKFRNTGQTCVCSNQFLVQRGIHDAFVKAFAEAMKKNLRVGNGFEEGTTQGPLINEKAVEKVEKQVNDAVSKGATVVTGGKRHQLGKNFFEPTLLCNVTQDMLCTHEETFGPLAPVIKFDTEEEAIAIANAADVGLAGYFYSQDPAQIWRVAEQLEVGMVGVNEGLISSVECPFGGVKQSGLGREGSKYGIDEYLELKYVCYGGL
notes: Human succinic semialdehyde dehydrogenase (EC 1.2.1.24), gene ALDH5A1; this is surmised; also called hSSADH; WT hSSADH; source: recombinant, expressed and purified as described (Didiasova et al. 2024)
stoichiometry N [8]: 4

More lines, now with the values ahead:

From Equation (5) (14°C) [1]: 13 ± 3 µM
Molecule: O=CCCC(=O)O [SSA]

Ki [5]: 15 ± 2 µM
Molecule: NC(=O)C1=CN([C@@H]2O[C@H](COP(=O)(O)OP(=O)(O)OC[C@H]3O[C@@H](n4cnc5c(N)ncnc54)[C@H](O)[C@@H]3O)[C@@H](O)[C@H]2O)C=CC1 [NADH]
